Assay results: PMC6669961, “Design and Optimization of Thioglycosyl–naphthalimides as Efficient Inhibitors Against Human O-GlcNAcase” (Frontiers in Chemistry, 2019)

Assays:
human O-GlcNAcase (hOGA) = biological target: T1, human O-GlcNAcase (hOGA) (Homo sapiens, UniProt O60502); test: Enzyme inhibitory activity test against hOGA (4-MU-GlcNAc substrate, end-point fluorescence; Dixon plots for Ki); assay type: biochemical; conditions: for inhibition at 100 µM: 100 μM inhibitor, 40 μM 4-MU-GlcNAc, 30°C, 30 min, read-out: Inhibition rate at 100 μM (%) hOGA; for inhibition at 100 µM / Ki: pH 6.5; for Ki: Dixon plots, 4-MU-GlcNAc 40, 20, 10 μM; for inhibitory mechanism toward hOGA: kinetic studies via Dixon plots; for decrease in inhibitory activity against hOGA: NHC2H5 (17a or 17d) compared to NHCH3 (16h or 17c)
T1 construct: made in house; host or cells: Escherichia coli BL21(DE3)
T1 sequence (O60502 1-916): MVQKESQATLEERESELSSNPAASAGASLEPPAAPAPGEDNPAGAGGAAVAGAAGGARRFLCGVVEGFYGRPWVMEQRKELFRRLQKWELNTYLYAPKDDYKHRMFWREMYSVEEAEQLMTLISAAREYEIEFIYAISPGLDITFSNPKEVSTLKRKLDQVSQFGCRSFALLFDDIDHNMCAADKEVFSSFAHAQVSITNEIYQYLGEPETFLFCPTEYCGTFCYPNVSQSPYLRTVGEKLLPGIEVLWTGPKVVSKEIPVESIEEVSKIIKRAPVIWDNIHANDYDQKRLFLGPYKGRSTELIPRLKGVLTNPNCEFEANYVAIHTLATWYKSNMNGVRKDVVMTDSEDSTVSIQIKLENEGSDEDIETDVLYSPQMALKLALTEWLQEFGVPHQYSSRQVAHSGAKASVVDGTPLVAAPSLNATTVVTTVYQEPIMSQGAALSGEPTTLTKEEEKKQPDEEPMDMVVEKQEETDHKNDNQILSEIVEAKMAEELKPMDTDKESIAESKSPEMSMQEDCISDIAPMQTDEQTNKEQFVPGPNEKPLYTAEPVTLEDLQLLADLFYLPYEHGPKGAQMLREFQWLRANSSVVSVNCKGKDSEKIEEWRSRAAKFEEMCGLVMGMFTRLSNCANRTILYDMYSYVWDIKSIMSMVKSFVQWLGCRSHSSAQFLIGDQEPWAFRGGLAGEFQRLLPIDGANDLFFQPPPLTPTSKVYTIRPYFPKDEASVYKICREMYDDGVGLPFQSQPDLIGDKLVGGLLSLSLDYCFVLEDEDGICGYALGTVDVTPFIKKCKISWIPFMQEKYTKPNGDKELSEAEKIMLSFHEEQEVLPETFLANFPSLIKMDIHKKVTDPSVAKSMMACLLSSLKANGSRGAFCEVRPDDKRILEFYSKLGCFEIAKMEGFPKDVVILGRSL
Method: (§1) Human O-GlcNAcase (hOGA) was expressed in Escherichia coli BL21(DE3) and purified according to previous methods (Kong et al., [2016]). Human β-N-acetylhexosaminidase B (HsHexB) was overexpressed in Pichia pastoris and then purified as described previously (Shen et al., [2018a]).
(§2) All target compounds were evaluated for their inhibitory activities against hOGA and HsHexB in end-point experiments. 4-Methylumbelliferyl N-acetyl-β-D-glucosaminide (4-MU-GlcNAc) was used as substrate. In a final assay volume of 100 μL, inhibitor and substrate (40 μM) were mixed with Britton-Robinson buffer (hOGA, pH 6.5; HsHexB, pH 4.5) and enzyme; then, the assay components were incubated at 30°C for 30 min. Subsequently, the enzymatic reaction was terminated by the addition of 100 μL 0.5 M Na2CO3 solution. The fluorescence of the liberated 4-methylumbelliferone (Mu) was quantified at an excitation of 366 nm and emission of 445 nm on a Varioskan Flash microplate reader (Thermo Fisher Scientific, USA). To determine the inhibition constant (Ki), Dixon plots were performed by changing the concentration of the 4-MU-GlcNAc (40, 20, and 10 μM).

[1] = biological target: T2, human β-N-acetylhexosaminidase B (HsHexB) (Homo sapiens, UniProt P07686); test: Enzyme inhibitory activity test against HsHexB (4-MU-GlcNAc substrate, end-point fluorescence; Dixon plots for Ki); assay type: biochemical; conditions: pH 4.5; for inhibition at 100 µM: 100 μM inhibitor, 40 μM 4-MU-GlcNAc, 30°C, 30 min, read-out: Inhibition rate at 100 μM (%) HsHexB; for Ki: Dixon plots, 4-MU-GlcNAc 40, 20, 10 μM
T2 construct: made in house; host or cells: Pichia pastoris
T2 sequence (P07686 122-556): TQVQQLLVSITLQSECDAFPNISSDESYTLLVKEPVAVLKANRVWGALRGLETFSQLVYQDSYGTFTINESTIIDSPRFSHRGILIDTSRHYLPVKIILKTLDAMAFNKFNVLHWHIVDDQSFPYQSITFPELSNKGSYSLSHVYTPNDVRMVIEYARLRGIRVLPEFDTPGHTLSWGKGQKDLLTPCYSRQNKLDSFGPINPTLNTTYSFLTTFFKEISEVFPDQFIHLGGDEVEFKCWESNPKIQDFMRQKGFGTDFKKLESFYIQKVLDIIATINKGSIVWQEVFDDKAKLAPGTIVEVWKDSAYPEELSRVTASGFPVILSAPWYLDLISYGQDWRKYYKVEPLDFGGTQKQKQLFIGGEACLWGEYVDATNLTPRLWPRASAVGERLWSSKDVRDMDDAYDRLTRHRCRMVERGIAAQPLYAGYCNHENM
Method: as §1, §2

HsHex = conditions: NGT; ref Knapp et al., 1996; read-out: Ki against HsHex; cited from earlier work

| inhibition at 100 µM (human O-GlcNAcase (hOGA)) [%] | Ki (human O-GlcNAcase (hOGA)) [µM] | increase in potency against hOGA (human O-GlcNAcase (hOGA); compared to lead compound 2 (Ki)) [fold] | inhibitory mechanism toward hOGA (human O-GlcNAcase (hOGA)) | inhibition at 100 µM [1] [%] | Ki [1] [µM] | decrease in inhibitory potency against hOGA (human O-GlcNAcase (hOGA); 10d compared to 10a (Ki)) [fold] | potency against hOGA reduced (human O-GlcNAcase (hOGA); 16h (NHCH3) compared to 16d (CH2CH3)) | decrease in inhibitory activity against hOGA (human O-GlcNAcase (hOGA)) [fold] | SMILES | Ki (HsHex) [µM] |
| --- | --- | --- | --- | --- | --- | --- | --- | --- | --- | --- |
| 98.7 ± 0.3 | 0.61 ± 0.02 | ~6 | competitive inhibitors | 36.5 ± 0.8 | > 100 |  |  |  | CC(=O)N[C@@H]1[C@@H](O)[C@H](O)[C@@H](CO)O[C@H]1SCC(=O)NCCCN1C(=O)c2cccc3c(Br)ccc(c23)C1=O [Compound 10a] |  |
| 90.6 ± 0.5 | 4.43 ± 0.21 |  |  | 49.2 ± 1.4 | > 100 |  |  |  | COc1ccc2c3c(cccc13)C(=O)N(CCCNC(=O)CS[C@@H]1O[C@H](CO)[C@@H](O)[C@H](O)[C@H]1NC(C)=O)C2=O [Compound 10b] |  |
| 84.4 ± 1.7 | 9.72 ± 0.49 |  |  | 36.9 ± 0.2 | > 100 |  |  |  | CC(=O)N[C@@H]1[C@@H](O)[C@H](O)[C@@H](CO)O[C@H]1SCC(=O)NCCCN1C(=O)c2cccc3c(N(C)C)ccc(c23)C1=O [Compound 10c] |  |
| 93.1 ± 0.2 | 1.42 ± 0.02 |  | competitive inhibitors | 32.8 ± 2.7 | > 100 | 2.3 |  |  | CC(=O)N[C@@H]1[C@@H](O)[C@H](O)[C@@H](CO)O[C@H]1SCC(=O)NCCCN1C(=O)c2cccc3c(N4CCCCC4)ccc(c23)C1=O [Compound 10d] |  |
| 22 ± 0.5 | > 100 |  |  | 12.2 ± 0.2 | > 100 |  |  |  | O=C(CS[C@@H]1O[C@H](CO)[C@@H](O)[C@H](O)[C@H]1NC(=O)c1ccccc1)NCCCN1C(=O)c2cccc3c(N4CCCCC4)ccc(c23)C1=O [Compound 16a] |  |
| 50.9 ± 0.8 | > 100 |  |  | 15.8 ± 0.4 | > 100 |  |  |  | O=C(CS[C@@H]1O[C@H](CO)[C@@H](O)[C@H](O)[C@H]1NC(=O)c1ccc(F)cc1)NCCCN1C(=O)c2cccc3c(N4CCCCC4)ccc(c23)C1=O [Compound 16b] |  |
| 9.7 ± 0.7 | > 100 |  |  | 2 ± 1.1 | > 100 |  |  |  | O=C(CS[C@@H]1O[C@H](CO)[C@@H](O)[C@H](O)[C@H]1NC(=O)OCc1ccccc1)NCCCN1C(=O)c2cccc3c(N4CCCCC4)ccc(c23)C1=O [Compound 16c] |  |
| 88 ± 1.5 | 1.69 ± 0.05 |  |  | 28.7 ± 2 | > 100 |  |  |  | CCC(=O)N[C@@H]1[C@@H](O)[C@H](O)[C@@H](CO)O[C@H]1SCC(=O)NCCCN1C(=O)c2cccc3c(N4CCCCC4)ccc(c23)C1=O [Compound 16d] |  |
| 78.9 ± 1.9 | 12.8 ± 0.27 |  |  | 24.6 ± 1.5 | > 100 |  |  |  | CCCC(=O)N[C@@H]1[C@@H](O)[C@H](O)[C@@H](CO)O[C@H]1SCC(=O)NCCCN1C(=O)c2cccc3c(N4CCCCC4)ccc(c23)C1=O [Compound 16e] |  |
| 72.2 ± 0.3 | 23.6 ± 0.43 |  |  | 21.4 ± 0.5 | > 100 |  |  |  | CC(C)C(=O)N[C@@H]1[C@@H](O)[C@H](O)[C@@H](CO)O[C@H]1SCC(=O)NCCCN1C(=O)c2cccc3c(N4CCCCC4)ccc(c23)C1=O [Compound 16f] |  |
| 82.7 ± 1 | 6.37 ± 0.09 |  |  | 6.4 ± 0.7 | > 100 |  |  |  | O=C(CS[C@@H]1O[C@H](CO)[C@@H](O)[C@H](O)[C@H]1NC(=O)C(F)(F)F)NCCCN1C(=O)c2cccc3c(N4CCCCC4)ccc(c23)C1=O [Compound 16g] |  |
| 85.5 ± 1.5 | 6.6 ± 0.22 |  |  | 25.2 ± 0.3 | > 100 |  | about 4 fold |  | CNC(=O)N[C@@H]1[C@@H](O)[C@H](O)[C@@H](CO)O[C@H]1SCC(=O)NCCCN1C(=O)c2cccc3c(N4CCCCC4)ccc(c23)C1=O [Compound 16h] |  |
| 41.1 ± 0.6 | > 100 |  |  | 49.1 ± 1.4 | > 100 |  |  |  | O=C(CS[C@@H]1O[C@H](CO)[C@@H](O)[C@H](O)[C@H]1NC(=O)c1ccccc1)NCCCN1C(=O)c2cccc3c(Br)ccc(c23)C1=O [Compound 16j] |  |
| 48 ± 0.9 | > 100 |  |  | 48.5 ± 1.7 | > 100 |  |  |  | O=C(CS[C@@H]1O[C@H](CO)[C@@H](O)[C@H](O)[C@H]1NC(=O)c1ccc(F)cc1)NCCCN1C(=O)c2cccc3c(Br)ccc(c23)C1=O [Compound 16k] |  |
| 97.7 ± 2.2 | 0.72 ± 0.01 |  |  | 41.8 ± 1 | > 100 |  |  |  | CCC(=O)N[C@@H]1[C@@H](O)[C@H](O)[C@@H](CO)O[C@H]1SCC(=O)NCCCN1C(=O)c2cccc3c(Br)ccc(c23)C1=O [Compound 16l] |  |
| 97.1 ± 1.3 | 4.36 ± 0.21 |  |  | 39.8 ± 2.3 | > 100 |  |  |  | CCCC(=O)N[C@@H]1[C@@H](O)[C@H](O)[C@@H](CO)O[C@H]1SCC(=O)NCCCN1C(=O)c2cccc3c(Br)ccc(c23)C1=O [Compound 16m] |  |
| 87.8 ± 0.4 | 6.92 ± 0.1 |  |  | 37 ± 0.4 | > 100 |  |  |  | CC(C)C(=O)N[C@@H]1[C@@H](O)[C@H](O)[C@@H](CO)O[C@H]1SCC(=O)NCCCN1C(=O)c2cccc3c(Br)ccc(c23)C1=O [Compound 16n] |  |
| 90.9 ± 0.2 | 4.62 ± 0.18 |  |  | 37.7 ± 0.9 | > 100 |  |  |  | O=C(CS[C@@H]1O[C@H](CO)[C@@H](O)[C@H](O)[C@H]1NC(=O)C(F)(F)F)NCCCN1C(=O)c2cccc3c(Br)ccc(c23)C1=O [Compound 16o] |  |
| 68.6 ± 0.8 | 12 ± 0.3 |  |  | 25.9 ± 0.3 | > 100 |  |  | 2 to 3 | CCNC(=O)N[C@@H]1[C@@H](O)[C@H](O)[C@@H](CO)O[C@H]1SCC(=O)NCCCN1C(=O)c2cccc3c(N4CCCCC4)ccc(c23)C1=O [Compound 17a] |  |
| 66.3 ± 0.6 | 13.83 ± 0.02 |  |  | 22.7 ± 0.2 | > 100 |  |  |  | CCCNC(=O)N[C@@H]1[C@@H](O)[C@H](O)[C@@H](CO)O[C@H]1SCC(=O)NCCCN1C(=O)c2cccc3c(N4CCCCC4)ccc(c23)C1=O [Compound 17b] |  |
| 96.7 ± 1.6 | 2.17 ± 0.13 |  |  | 40.7 ± 0.7 | > 100 |  |  |  | CNC(=O)N[C@@H]1[C@@H](O)[C@H](O)[C@@H](CO)O[C@H]1SCC(=O)NCCCN1C(=O)c2cccc3c(Br)ccc(c23)C1=O [Compound 17c] |  |
| 83.5 ± 0.9 | 7.11 ± 0.01 |  |  | 26.3 ± 1.1 | > 100 |  |  | 2 to 3 | CCNC(=O)N[C@@H]1[C@@H](O)[C@H](O)[C@@H](CO)O[C@H]1SCC(=O)NCCCN1C(=O)c2cccc3c(Br)ccc(c23)C1=O [Compound 17d] |  |
|  |  |  |  |  |  |  |  |  | CC1=N[C@@H]2[C@@H](O)[C@H](O)[C@@H](CO)O[C@@H]2S1 [NGT, NAG-thiazoline] | 0.07 |
